In patent US9204653B2, “5-fluoro pyrimidine derivatives” (DOW AGROSCIENCES LLC, priority 2008, dated 2015):
Read-outs that look alike come from different tables or passages of the source.

Tested on: Mycosphaerella graminicola; Anamorph: Septoria tritici; Bayer Code SEPTTR
Assay: Leaf blotch of wheat, foliar fungicide treatment, one day protectant (1DP) or three day curative (3DC)
Format: in vivo, Septoria tritici on wheat plants (variety Yuma)
Settings: Zymoseptoria tritici, percent control rating; for pest or weed control at 100 ppm: read-out: SEPTTR 3DC 100 ppm
[1] = 24 h, one day protectant (1DP), 25 ppm (first 1DP column), read-out: SETTTR 1DP 25 ppm
[2] = 24 h, one day protectant (1DP), 25 ppm as printed (second 1DP column), read-out: SETTTR 1DP 25 ppm
[3] = 72 h, three day curative (3DC), 25 ppm, read-out: SEPTTR 3DC 25 ppm

Compound: CCCNC(=O)Nc1nc(O)ncc1F [Compound 980]
- pest or weed control at 25 ppm [1]: 0 to 25%
- pest or weed control at 25 ppm [2]: 0 to 25%
- pest or weed control at 25 ppm [3]: 0 to 25%
- pest or weed control at 100 ppm (72 h, three day curative (3DC)): 0 to 25%

Compound: O=C(NCc1ccco1)Nc1nc(O)ncc1F [Compound 981]
- pest or weed control at 25 ppm [1]: 0 to 25%
- pest or weed control at 25 ppm [2]: 0 to 25%
- pest or weed control at 25 ppm [3]: 0 to 25%
- pest or weed control at 100 ppm (72 h, three day curative (3DC)): 0 to 25%

Compound: CCCCCOC(=O)Nc1nc(OCc2ccccc2)ncc1F [Compound 982]
- pest or weed control at 25 ppm [1]: 76 to 100%
- pest or weed control at 25 ppm [2]: 76 to 100%
- pest or weed control at 25 ppm [3]: 76 to 100%
- pest or weed control at 100 ppm (72 h, three day curative (3DC)): 76 to 100%

Compound: C=CCOC(=O)Nc1nc(OCc2ccccc2)ncc1F [Compound 983]
- pest or weed control at 25 ppm [1]: 76 to 100%
- pest or weed control at 25 ppm [2]: 76 to 100%
- pest or weed control at 25 ppm [3]: 76 to 100%
- pest or weed control at 100 ppm (72 h, three day curative (3DC)): 76 to 100%

Compound: CCCCCOC(=O)Nc1nc(OCc2ccc(F)cc2)ncc1F [Compound 984]
- pest or weed control at 25 ppm [1]: 76 to 100%
- pest or weed control at 25 ppm [2]: 76 to 100%
- pest or weed control at 25 ppm [3]: 76 to 100%
- pest or weed control at 100 ppm (72 h, three day curative (3DC)): 76 to 100%

Compound: C=CCOC(=O)Nc1nc(OCc2ccc(F)cc2)ncc1F [Compound 985]
- pest or weed control at 25 ppm [1]: 76 to 100%
- pest or weed control at 25 ppm [2]: 76 to 100%
- pest or weed control at 25 ppm [3]: 76 to 100%
- pest or weed control at 100 ppm (72 h, three day curative (3DC)): 76 to 100%

Compound: CCCCCOC(=O)Nc1nc(OCc2ccc(C)cc2)ncc1F [Compound 986]
- pest or weed control at 25 ppm [1]: 76 to 100%
- pest or weed control at 25 ppm [2]: 76 to 100%
- pest or weed control at 25 ppm [3]: 76 to 100%
- pest or weed control at 100 ppm (72 h, three day curative (3DC)): 76 to 100%

Compound: C=CCOC(=O)Nc1nc(OCc2ccc(C)cc2)ncc1F [Compound 987]
- pest or weed control at 25 ppm [1]: 76 to 100%
- pest or weed control at 25 ppm [2]: 76 to 100%
- pest or weed control at 25 ppm [3]: 76 to 100%
- pest or weed control at 100 ppm (72 h, three day curative (3DC)): 76 to 100%

Compound: CCCCCOC(=O)Nc1nc(OCc2cccc(OC)c2)ncc1F [Compound 988]
- pest or weed control at 25 ppm [1]: 76 to 100%
- pest or weed control at 25 ppm [2]: 76 to 100%
- pest or weed control at 25 ppm [3]: 76 to 100%
- pest or weed control at 100 ppm (72 h, three day curative (3DC)): 76 to 100%

Compound: C=CCOC(=O)Nc1nc(OCc2cccc(OC)c2)ncc1F [Compound 989]
- pest or weed control at 25 ppm [1]: 76 to 100%
- pest or weed control at 25 ppm [2]: 76 to 100%
- pest or weed control at 25 ppm [3]: 51 to 75%
- pest or weed control at 100 ppm (72 h, three day curative (3DC)): 76 to 100%

Compound: C/C(=N\Oc1nc(OCc2ccccc2)ncc1F)c1cnc(OCC(F)(F)F)nc1 [Compound 990]
- pest or weed control at 25 ppm [1]: 0 to 25%
- pest or weed control at 25 ppm [2]: 0 to 25%
- pest or weed control at 25 ppm [3]: 0 to 25%
- pest or weed control at 100 ppm (72 h, three day curative (3DC)): 0 to 25%

Compound: Fc1cnc(OCc2ccccc2)nc1/N=N/c1ccccc1 [Compound 991]
- pest or weed control at 25 ppm [1]: 0 to 25%
- pest or weed control at 25 ppm [2]: 0 to 25%
- pest or weed control at 25 ppm [3]: 0 to 25%
- pest or weed control at 100 ppm (72 h, three day curative (3DC)): 0 to 25%

Compound: Cc1ccc(COc2ncc(F)c(/N=N/c3ccccc3)n2)cc1 [Compound 992]
- pest or weed control at 25 ppm [1]: 0 to 25%
- pest or weed control at 25 ppm [2]: 0 to 25%
- pest or weed control at 25 ppm [3]: 0 to 25%
- pest or weed control at 100 ppm (72 h, three day curative (3DC)): 26 to 50%

Compound: Fc1cnc(OCc2ccccc2)nc1/N=N/c1ccccn1 [Compound 993]
- pest or weed control at 25 ppm [1]: 0 to 25%
- pest or weed control at 25 ppm [2]: 26 to 50%
- pest or weed control at 25 ppm [3]: 0 to 25%
- pest or weed control at 100 ppm (72 h, three day curative (3DC)): 51 to 75%

Compound: Cc1ccc(COc2ncc(F)c(NS(=O)(=O)c3ccccc3)n2)cc1 [Compound 994]
- pest or weed control at 25 ppm [1]: 0 to 25%
- pest or weed control at 25 ppm [2]: 26 to 50%
- pest or weed control at 25 ppm [3]: 0 to 25%
- pest or weed control at 100 ppm (72 h, three day curative (3DC)): 0 to 25%

Compound: CCc1ccccc1NNc1nc(OCc2ccc(C)cc2)ncc1F [Compound 995]
- pest or weed control at 25 ppm [1]: 0 to 25%
- pest or weed control at 25 ppm [2]: 26 to 50%
- pest or weed control at 25 ppm [3]: 0 to 25%
- pest or weed control at 100 ppm (72 h, three day curative (3DC)): 0 to 25%

Compound: COc1ccccc1NNc1nc(OCc2ccc(C)cc2)ncc1F [Compound 996]
- pest or weed control at 25 ppm [1]: 26 to 50%
- pest or weed control at 25 ppm [2]: 51 to 75%
- pest or weed control at 25 ppm [3]: 26 to 50%
- pest or weed control at 100 ppm (72 h, three day curative (3DC)): 51 to 75%

Compound: CC(C)=NOc1ncc(F)c(N)n1 [Compound 997]
- pest or weed control at 25 ppm [1]: 76 to 100%
- pest or weed control at 25 ppm [2]: 76 to 100%
- pest or weed control at 25 ppm [3]: 76 to 100%
- pest or weed control at 100 ppm (72 h, three day curative (3DC)): 76 to 100%

Compound: Nc1nc(ON=C(C2CC2)C2CC2)ncc1F [Compound 998]
- pest or weed control at 25 ppm [1]: 76 to 100%
- pest or weed control at 25 ppm [2]: 76 to 100%
- pest or weed control at 25 ppm [3]: 76 to 100%
- pest or weed control at 100 ppm (72 h, three day curative (3DC)): 76 to 100%

Compound: COc1ccc(/C(C)=N/Oc2ncc(F)c(N)n2)cc1 [Compound 999]
- pest or weed control at 25 ppm [1]: 76 to 100%
- pest or weed control at 25 ppm [2]: 76 to 100%
- pest or weed control at 25 ppm [3]: 76 to 100%
- pest or weed control at 100 ppm (72 h, three day curative (3DC)): 76 to 100%

Compound: C/C(=N\Oc1ncc(F)c(N)n1)c1ccc(Cl)cc1 [Compound 1000]
- pest or weed control at 25 ppm [1]: 76 to 100%
- pest or weed control at 25 ppm [2]: 76 to 100%
- pest or weed control at 25 ppm [3]: 76 to 100%
- pest or weed control at 100 ppm (72 h, three day curative (3DC)): 76 to 100%

Compound: C/C(=N\Oc1ncc(F)c(N)n1)c1cnc(OCC(F)(F)F)nc1 [Compound 1001]
- pest or weed control at 25 ppm [1]: 26 to 50%
- pest or weed control at 25 ppm [2]: 76 to 100%
- pest or weed control at 25 ppm [3]: 26 to 50%
- pest or weed control at 100 ppm (72 h, three day curative (3DC)): 76 to 100%

Compound: C/C(=N\Oc1ncc(F)c(N)n1)c1ccc(S(=O)(=O)N(C)C)cc1 [Compound 1002]
- pest or weed control at 25 ppm [1]: 51 to 75%
- pest or weed control at 25 ppm [2]: 76 to 100%
- pest or weed control at 25 ppm [3]: 26 to 50%
- pest or weed control at 100 ppm (72 h, three day curative (3DC)): 51 to 75%

Compound: CC(C)S(=O)(=O)Nc1nc(OCc2ccc(F)cc2)ncc1F [Compound 1004]
- pest or weed control at 25 ppm [1]: 0 to 25%
- pest or weed control at 25 ppm [2]: 0 to 25%
- pest or weed control at 25 ppm [3]: 0 to 25%
- pest or weed control at 100 ppm (72 h, three day curative (3DC)): 26 to 50%

Compound: O=S(=O)(Nc1nc(OCc2ccc(F)cc2)ncc1F)c1ccccc1 [Compound 1005]
- pest or weed control at 25 ppm [1]: 0 to 25%
- pest or weed control at 25 ppm [2]: 0 to 25%
- pest or weed control at 25 ppm [3]: 0 to 25%
- pest or weed control at 100 ppm (72 h, three day curative (3DC)): 0 to 25%

Compound: CCS(=O)(=O)Nc1nc(OCc2ccc(C)cc2)ncc1F [Compound 1006]
- pest or weed control at 25 ppm [1]: 0 to 25%
- pest or weed control at 25 ppm [2]: 0 to 25%
- pest or weed control at 25 ppm [3]: 0 to 25%
- pest or weed control at 100 ppm (72 h, three day curative (3DC)): 0 to 25%

Compound: Cc1ccc(COc2ncc(F)c(NS(=O)(=O)C3CC3)n2)cc1 [Compound 1007]
- pest or weed control at 25 ppm [1]: 0 to 25%
- pest or weed control at 25 ppm [2]: 0 to 25%
- pest or weed control at 25 ppm [3]: 0 to 25%
- pest or weed control at 100 ppm (72 h, three day curative (3DC)): 0 to 25%

Compound: CS(=O)(=O)Nc1nc(OCc2ccccc2)ncc1F [Compound 1008]
- pest or weed control at 25 ppm [1]: 0 to 25%
- pest or weed control at 25 ppm [2]: 0 to 25%
- pest or weed control at 25 ppm [3]: 0 to 25%
- pest or weed control at 100 ppm (72 h, three day curative (3DC)): 0 to 25%

Compound: CC(C)S(=O)(=O)Nc1nc(OCc2ccccc2)ncc1F [Compound 1009]
- pest or weed control at 25 ppm [1]: 0 to 25%
- pest or weed control at 25 ppm [2]: 0 to 25%
- pest or weed control at 25 ppm [3]: 0 to 25%
- pest or weed control at 100 ppm (72 h, three day curative (3DC)): 0 to 25%

Compound: O=S(=O)(Nc1nc(OCc2ccccc2)ncc1F)c1ccccc1 [Compound 1010]
- pest or weed control at 25 ppm [1]: 0 to 25%
- pest or weed control at 25 ppm [2]: 0 to 25%
- pest or weed control at 25 ppm [3]: 0 to 25%
- pest or weed control at 100 ppm (72 h, three day curative (3DC)): 0 to 25%

Compound: COc1cccc(COc2ncc(F)c(NS(C)(=O)=O)n2)c1 [Compound 1011]
- pest or weed control at 25 ppm [1]: 0 to 25%
- pest or weed control at 25 ppm [2]: 0 to 25%
- pest or weed control at 25 ppm [3]: 0 to 25%
- pest or weed control at 100 ppm (72 h, three day curative (3DC)): 0 to 25%

Compound: COc1cccc(COc2ncc(F)c(NS(=O)(=O)C(C)C)n2)c1 [Compound 1012]
- pest or weed control at 25 ppm [1]: 0 to 25%
- pest or weed control at 25 ppm [2]: 0 to 25%
- pest or weed control at 25 ppm [3]: 0 to 25%
- pest or weed control at 100 ppm (72 h, three day curative (3DC)): 0 to 25%

Compound: COc1cccc(COc2ncc(F)c(NS(=O)(=O)c3ccccc3)n2)c1 [Compound 1013]
- pest or weed control at 25 ppm [1]: 0 to 25%
- pest or weed control at 25 ppm [2]: 0 to 25%
- pest or weed control at 25 ppm [3]: 0 to 25%
- pest or weed control at 100 ppm (72 h, three day curative (3DC)): 0 to 25%
